{"source": "patent US20070111956A1", "about": "“Remedy for sarcoidosis and method of treating the same” (Japan Science and Technology Agency, priority 2003, published 2007)", "key": {"[1]": {"tested_on": "mice immunized three times with P. acnes", "assay": "Antibiotic treatment in the mouse pulmonary granuloma (sarcoidosis) model: BAL cell counts and histology", "type": "in vivo", "conditions": "for decrease of the total number of BAL leukocytes (improved by): percentage in comparison to the control (PBS) group set at 100; for number of CD4+ BAL cells decreased by: two weeks after the third immunization, antibiotics begun before immunization, FIG. 6b", "method": "Female C57BL/6J mice of 5 to 7 weeks of age were obtained from CLEA Japan (Shizuoka, Japan) or Japan SLC, Inc. (Tokyo, Japan), and kept under specific pathogen-free (SPF) conditions in the animal facility of the Department of Molecular Preventive Medicine, Graduated School of Medicine, the University of Tokyo. All animal experiments were conducted in accordance with the guidelines of the University of Tokyo.\nP. acnes-sensitized CD4^+ T cells were isolated from groins of normal mice and mice immunized three times. Immunization was conducted by subcutaneous injection of 400 μg of heat-killed P. acnes (ATCC11828, American Type Culture Collection, Manassas, Va.) and Freund's complete adjuvant (Difco, Detroit, Mich.) into the footpad at 2-week intervals. CD4^+ cells were isolated with the use of MACS system (Miltenyi Biotech, Bergisch Gladbach, Germany) according to manufacturer's instructions. The purity of CD4^+ cell populations was 94% or higher, as confirmed by immunostaining flow cytometry. The isolated CD4^+ cells (2×10^6 cells/PBS 200 μl) were injected into the tail vein of normal mice, and histological analysis of the lungs was conducted two weeks after the injection.\nBAL cells were collected by five injections of 0.8 ml of sterile PBS containing 2% FCS (Sigma, St. Louis, Mo.) and 2 mM EDTA. The total number of BAL leukocytes was counted with a hemocytometer. Before the analysis with EPICS Elite instrument (Beckman Coulter, Miami, Fla.), BAL cells were preincubated with rat anti-mouse CD16/CD32 (clone; 2.4G2) mAb to block FcR-mediated binding, and then incubated for […] at 4° C. with FITC-conjugated anti-CD4 (H129.19) mAb and PE-conjugated anti-CD8a (53-6.7) mAb, both from BD Pharmingen.\nMinocycline hydrochloride (MINO) (Wyeth Ledele, Tokyo, Japan) and clindamycin (CLDM) (Pharmacia, Tokyo, Japan) were used. On day one, 133 μg of MINO and 1.6 mg of CLDM were administered intratrancheally (i.t.). Subsequently, the same dose of each antibiotic was injected intraperitoneally (i.p.) everyday for one week before immunization, then intraperitoneal injection was conducted three times per week. During the experiment, mice were given water containing each antibiotic at the same dose as mentioned above. Similarly, ampicillin (ABPC), cefazolin sodium (CEZ), gentamicin sulfate (GM), fosfomycin (FOM), clarithromycin (CAM) were used and single dose of these antibiotics was set by calculating the maximum amount for regular use by adults based on their body weight."}, "[2]": {"assay": "Examination for nonspecific immunosuppression (ear swelling, spleen index)", "type": "in vivo, mouse", "conditions": "in comparison to PBS control; FIG. 9"}, "[3]": {"tested_on": "indigenous P. acnes in the mouse lung", "assay": "PCR detection of indigenous P. acnes in the mouse lung after antibiotics", "type": "in vivo, Propionibacterium acnes", "conditions": "PBS as a control; FIG. 8", "method": "Samples of 1 μg of total RNA were isolated from the lungs, and regional lymph nodes samples of the lung, the liver, the skin and the pancreas of SPF mice using Trizol (Invitrogen, Groningen, the Netherlands) according to the manufacturer's instructions. Then, RNA samples were reverse transcribed into cDNA, and amplified (J. Exp. Med. 193, 35-49, 2001; J. Clin. Invest. 102, 1933-1941, 1998). PCR products of 16s ribosomal RNA of P. acnes were electrophoresed on 2.5% agarose gel. The bands visualized by ethidium bromide staining were expected size for each mRNA product. Oligonucleotide primers for P. acnes were designed as described previously (J. Clin. Microbiol. 40, 198-204, 2002): forward, 5′-[…]-3′ (SEQ ID NO: 1); reverse, 5′-TTCCGACGCGATCAACCA-3′ (SEQ ID NO: 2). Contamination of P. acnes during the experiment was checked by buffer control. As primers for GAPDH as an internal standard, previously described ones were used (J. Exp. Med. 193, 35-49, 2001). PCR conditions: heated at 95° C. for 5 min, followed by 40 cycles of 95° C. for 30 sec, 58° C. for 60 sec, 72° C. for 60 sec, and finally heated at 72° C. for 10 min.\nMinocycline hydrochloride (MINO) (Wyeth Ledele, Tokyo, Japan) and clindamycin (CLDM) (Pharmacia, Tokyo, Japan) were used. On day one, 133 μg of MINO and 1.6 mg of CLDM were administered intratrancheally (i.t.). […]"}}, "note": "Counter-ions that a name gives are not always drawn.", "data": [{"molecule": "CC1(C)S[C@@H]2[C@H](NC(=O)[C@H](N)c3ccccc3)C(=O)N2[C@H]1C(=O)O", "note": "[ABPC, ampicillin]", "values": [{"measurement": "decrease of the total number of BAL leukocytes (improved by)", "setting": "[1]; FIG. 7", "value": 46.1, "unit": "%"}]}, {"molecule": "CC[C@H]1OC(=O)[C@H](C)[C@@H](O[C@H]2C[C@@](C)(OC)[C@@H](O)[C@H](C)O2)[C@H](C)[C@@H](O[C@@H]2O[C@H](C)C[C@H](N(C)C)[C@H]2O)[C@](C)(OC)C[C@@H](C)C(=O)[C@H](C)[C@@H](O)[C@]1(C)O", "note": "[CAM, clarithromycin]", "values": [{"measurement": "decrease of the total number of BAL leukocytes (improved by)", "setting": "[1]; FIG. 7", "value": 48.3, "unit": "%"}]}, {"molecule": "CCC[C@@H]1C[C@@H](C(=O)N[C@@H]([C@H]2O[C@H](SC)[C@H](O)[C@@H](O)[C@H]2O)[C@H](C)Cl)N(C)C1", "note": "[CLDM, clindamycin]", "values": [{"measurement": "size of ear swelling", "setting": "[2]", "value": "no marked differences"}, {"measurement": "spleen index", "setting": "[2]", "value": "no marked differences"}, {"measurement": "decrease of the total number of BAL leukocytes (improved by)", "setting": "[1]; FIG. 7", "value": 42.1, "unit": "%"}, {"measurement": "decrease of the total number of BAL leukocytes (improved by), group administered for a short period", "setting": "[1]; FIG. 7, short: antibiotics initiated one month after treatment of the model (at the last immunization), versus PBS set at 100", "value": 74.3, "unit": "%"}, {"measurement": "number of CD4+ BAL cells decreased by", "setting": "[1]", "value": 42.1, "unit": "%"}]}, {"molecule": "CN(C)c1ccc(O)c2c1C[C@H]1C[C@H]3[C@H](N(C)C)C(O)=C(C(N)=O)C(=O)[C@@]3(O)C(O)=C1C2=O", "note": "[MINO, minocycline hydrochloride]", "values": [{"measurement": "size of ear swelling", "setting": "[2]", "value": "no marked differences"}, {"measurement": "spleen index", "setting": "[2]", "value": "no marked differences"}, {"measurement": "decrease of the total number of BAL leukocytes (improved by)", "setting": "[1]; FIG. 7", "value": 53.5, "unit": "%"}, {"measurement": "number of CD4+ BAL cells decreased by", "setting": "[1]", "value": 53.5, "unit": "%"}]}, {"molecule": "gentamicin sulfate [GM]", "values": [{"measurement": "indigenous P. acnes in the mouse lung by PCR", "setting": "[3]", "value": "did not decrease so much"}, {"measurement": "effect on BAL cells (FIG. 7), in words", "setting": "[1]; FIG. 7, in comparison to the control (PBS) group", "value": "no effect"}]}]}
